Patent publication US7161032B2, “Sulfonamide derivatives, insecticides for agricultural and horticultural use, and usage thereof” (Nihon Nohyaku Co., Ltd., priority 2002, dated 2007)

What was measured:
Format in all cases: in vivo
[1] = tested on: Diamond Back Moth (Plutella xylostella); experiment: Insecticidal effect on diamond back moth (Test Example 1): egg-bearing Chinese cabbage seedling immersed in 50 ppm liquid chemical
Experimental: Adult diamond back moths were released and allowed to oviposit on a Chinese cabbage seedling. Two days after the release, the seedling having the eggs deposited thereon was immersed for about 30 seconds in a liquid chemical prepared by diluting a preparation containing each compound listed in Table 1 or 2 as an active ingredient to adjust the concentration to 50 ppm. After air-dryness, it was allowed to stand in a room thermostated at 25° C. Six days after the immersion, the hatched insects were counted. The mortality was calculated according to the following equation and the insecticidal effect was judged according to the criterion shown below. The test was carried out with triplicate groups of 10 insects. [formula]

[2] = tested on: Common Cutworm (Spodoptera litura); experiment: Insecticidal effect on common cutworm (Test Example 2): cabbage leaf piece immersed in 50 ppm liquid chemical; conditions: common cutworm (Spodoptera litura) second-instar larvae, 8 days after inoculation, 25° C.
Experimental: A piece of cabbage leaf (cultivar: Shikidori) was immersed for about 30 seconds in a liquid chemical prepared by diluting a preparation containing each compound listed in Table 1 or 2 as an active ingredient to adjust the concentration to 50 ppm. After air-dryness, it was placed in a plastic Petri dish with a diameter of 9 cm and inoculated with second-instar larvae of common cutworm, after which the dish was closed and then allowed to stand in a room thermostated at 25° C. Eight days after the inoculation, the dead and alive were counted. The mortality was calculated according to the following equation and the insecticidal effect was judged according to the criterion shown in Test Example 1. The test was carried out with triplicate groups of 10 insects. [formula]

[3] = tested on: Smaller Tea Tortrix (Adoxophyes sp.); experiment: Insecticidal effect on smaller tea tortrix (Test Example 3): tea leaves immersed in 50 ppm liquid chemical; conditions: smaller tea tortrix (Adoxophyes sp.) larvae, 8 days after inoculation, 25° C., humidity 70%
Experimental: Tea leaves were immersed for about 30 seconds in a liquid chemical prepared by diluting a preparation containing each compound listed in Table 1 or 2 as an active ingredient to adjust the concentration to 50 ppm. After air-dryness, the tea leaves were placed in a plastic Petri dish with a diameter of 9 cm and inoculated with larvae of smaller tea tortrix, after which the dish was allowed to stand in a room thermostated at 25° C. and having a humidity of 70%. Eight days after the inoculation, the dead and alive were counted and the insecticidal effect was judged according to the criterion shown in Test Example 1. The test was carried out with triplicate groups of 10 insects.

Compound | Insecticidal effect (mortality grade), Test Example 1 [1] | Insecticidal effect (mortality grade), Test Example 2 [2] | Insecticidal effect (mortality grade), Test Example 3 [3]
COc1ccc(NS(=O)(=O)CC(C)NC(=O)c2c(I)cccc2C(=O)Nc2ccc(C(F)(C(F)(F)F)C(F)(F)F)cc2C)cc1 (stereo not drawn) [1-111] | A (Mortality 100%) | E (Mortality less than 50%) | E (Mortality less than 50%)
Cc1cc(C(F)(C(F)(F)F)C(F)(F)F)ccc1NC(=O)c1cccc(I)c1C(=O)NC(C)CS(=O)(=O)N1CCOCC1 (stereo not drawn) [1-54] | A (Mortality 100%) | A (Mortality 100%) | A (Mortality 100%)
CC[S+]([O-])CCNS(=O)(=O)CC(C)(C)NC(=O)c1c(I)cccc1C(=O)Nc1ccc(C(F)(C(F)(F)F)C(F)(F)F)cc1C (stereo not drawn) [1-85] | A (Mortality 100%) | A (Mortality 100%) | A (Mortality 100%)
Cc1cc(C(C(F)(F)F)C(F)(F)F)ccc1NC(=O)c1cccc(I)c1C(=O)NC(C)(C)CS(=O)(=O)N1CCCC1 [1-345] | A (Mortality 100%) | A (Mortality 100%) | A (Mortality 100%)
CCSCCNS(=O)(=O)CC(C)(C)NC(=O)c1c(I)cccc1C(=O)Nc1ccc(C(F)(C(F)(F)F)C(F)(F)F)cc1C [1-84] | A (Mortality 100%) | A (Mortality 100%) | A (Mortality 100%)
Cc1cc(C(F)(C(F)(F)F)C(F)(F)F)ccc1NC(=O)c1cccc(I)c1C(=O)NC(C)CS(=O)(=O)NCc1ccccc1[N+](=O)[O-] (stereo not drawn) [1-28] | A (Mortality 100%) | A (Mortality 100%) | A (Mortality 100%)
CCN(CC)S(=O)(=O)CC(C)NC(=O)c1c(I)cccc1C(=O)Nc1ccc(OC(F)(F)F)cc1Cl (stereo not drawn) [1-285] | A (Mortality 100%) | C (Mortality 89–80%) | E (Mortality less than 50%)
Cc1cc(C(F)(C(F)(F)F)C(F)(F)F)ccc1NC(=O)c1cccc(I)c1C(=O)NC(C)(C)CS(=O)(=O)N1CCSCC1C (stereo not drawn) [1-61] | A (Mortality 100%) | A (Mortality 100%) | A (Mortality 100%)
Cc1cc(C(F)(C(F)(F)F)C(F)(F)F)ccc1NC(=O)c1cccc(I)c1C(=O)NC(C)(C)CS(=O)(=O)NCCO [1-78] | A (Mortality 100%) | E (Mortality less than 50%) | A (Mortality 100%)
Cc1cc(C(F)(C(F)(F)F)C(F)(F)F)ccc1NC(=O)c1cccc(I)c1C(=O)NC(C)(C)CS(=O)(=O)NCCS(=O)(=O)c1ccccc1 [1-89] | A (Mortality 100%) | A (Mortality 100%) | A (Mortality 100%)
Cc1cc(C(F)(C(F)(F)F)C(F)(F)F)ccc1NC(=O)c1cccc(I)c1C(=O)NC(C)CS(=O)(=O)NCCc1ccccc1 (stereo not drawn) [1-47] | A (Mortality 100%) | A (Mortality 100%) | A (Mortality 100%)
Cc1cc(C(F)(C(F)(F)F)C(F)(F)F)ccc1NC(=O)c1cccc(I)c1C(=O)N[C@@H](C)CS(=O)(=O)NCc1ccccc1 [1-146] | A (Mortality 100%) | A (Mortality 100%) | A (Mortality 100%)
COc1ccccc1NS(=O)(=O)CC(C)NC(=O)c1c(I)cccc1C(=O)Nc1ccc(C(F)(C(F)(F)F)C(F)(F)F)cc1C (stereo not drawn) [1-108] | A (Mortality 100%) | A (Mortality 100%) | A (Mortality 100%)
Cc1cc(C(F)(C(F)(F)F)C(F)(F)F)ccc1NC(=O)c1cccc(I)c1C(=O)N[C@@H](C)CS(=O)(=O)N[C@@H](C)C[S+](C)[O-] (stereo partly drawn) [1-148] | A (Mortality 100%) | A (Mortality 100%) | A (Mortality 100%)
Cc1cc(C(F)(C(F)(F)F)C(F)(F)F)ccc1NC(=O)c1cccc(I)c1C(=O)NC(C)(C)CS(=O)(=O)N1CCS(=O)(=O)CC1C (stereo not drawn) [1-63] | A (Mortality 100%) | A (Mortality 100%) | A (Mortality 100%)
Cc1cc(C(F)(C(F)(F)F)C(F)(F)F)ccc1NC(=O)c1cccc(I)c1C(=O)NC(C)CS(=O)(=O)NCc1ccc(SC(F)(F)F)cc1 (stereo not drawn) [1-38] | A (Mortality 100%) | A (Mortality 100%) | A (Mortality 100%)
CCN(CC)S(=O)(=O)CC(C)(C)NC(=O)c1ccccc1C(=O)Nc1ccc(C(F)(C(F)(F)F)C(F)(F)F)cc1C [1-208] | A (Mortality 100%) | E (Mortality less than 50%) | A (Mortality 100%)
COc1cccc(OC)c1CNS(=O)(=O)CC(C)NC(=O)c1c(I)cccc1C(=O)Nc1ccc(C(F)(C(F)(F)F)C(F)(F)F)cc1C (stereo not drawn) [1-32] | A (Mortality 100%) | A (Mortality 100%) | A (Mortality 100%)
CCN(CC)S(=O)(=O)CC(C)NC(=O)c1c(I)cccc1C(=O)Nc1ccc(C(F)(F)C(F)(F)F)cc1C (stereo not drawn) [1-301] | A (Mortality 100%) | A (Mortality 100%) | A (Mortality 100%)
CSCCNS(=O)(=O)CC(C)NC(=O)c1c(I)cccc1C(=O)Nc1ccc(C(F)(C(F)(F)F)C(F)(F)F)cc1C (stereo not drawn) [1-75] | A (Mortality 100%) | A (Mortality 100%) | A (Mortality 100%)
CCCCNS(=O)(=O)CC(C)NC(=O)c1c(I)cccc1C(=O)Nc1ccc(C(F)(C(F)(F)F)C(F)(F)F)cc1C (stereo not drawn) [1-12] | A (Mortality 100%) | A (Mortality 100%) | A (Mortality 100%)
CCN(CC)S(=O)(=O)CC(C)(C)NC(=O)c1c(I)cccc1C(=O)Nc1ccc(C(F)(F)C(F)(F)F)cc1C [1-302] | A (Mortality 100%) | A (Mortality 100%) | A (Mortality 100%)
COCCNS(=O)(=O)CC(C)(C)NC(=O)c1c(I)cccc1C(=O)Nc1ccc(C(F)(C(F)(F)F)C(F)(F)F)cc1C [1-79] | A (Mortality 100%) | A (Mortality 100%) | A (Mortality 100%)
